This note sets out measurements from ChEMBL document CHEMBL1134610, “Flavonolignan and flavone inhibitors of a Staphylococcus aureus multidrug resistance pump: structure-activity relationships” (2001).

The subject of assay [1] is Staphylococcus aureus. Nature of the assay: Minimum inhibitory concentration, that inhibits growth of Staphylococcus aureus in the presence of subinhibitory (30 ug/mL) Berberine. The class given is functional.
Assay [2] has as its system Staphylococcus aureus. Nature of the assay: Minimum inhibitory concentration, that inhibits growth of Staphylococcus aureus in the presence of subinhibitory (30 ug/mL) Berberine; Inactive. The class given is functional, organism-based.
The subject of assay [3] is Staphylococcus aureus. Nature of the assay: Minimum inhibitory concentration, that inhibits growth of Staphylococcus aureus in the presence of subinhibitory (30 ug/mL) Berberine Inactive. The class given is functional, organism-based.

The source made the active and inactive calls. The rule behind the calls is not given here.

Take `COc1cc(OC)c2c(=O)cc(-c3ccccc3)oc2c1` [CHRYSIN DIMETHYL ETHER]: the MIC with Staphylococcus aureus [1] turned out to be 25 µg/mL.

With `O=c1c(O)c(-c2ccc(O)c(O)c2)oc2cc(O)cc(O)c12`, the IA entry in the assay on Staphylococcus aureus [2] was “inactive”.

Consider `COc1cc([C@H]2Oc3cc(-c4cc(=O)c5ccccc5o4)ccc3O[C@@H]2CO)ccc1O`, for which, in the assay on Staphylococcus aureus [1], the MIC was found to be 0.08 µg/mL.

`COc1cc([C@H]2Oc3cc([C@@H]4CC(=O)c5c(OC(C)=O)cc(OC(C)=O)cc5O4)ccc3O[C@@H]2COC(C)=O)ccc1OC(C)=O`: the MIC in the assay with Staphylococcus aureus [1] turned out to be 1.6 µg/mL.

In the case of `O=c1cc(-c2ccccc2)oc2cc(O)cc(O)c12` [CHRYSIN], the MIC in the assay with Staphylococcus aureus [1] stood at 25 µg/mL.

For `O=c1cc(-c2ccc(OCCO)cc2)oc2ccccc12`, the MIC in the assay on Staphylococcus aureus [1] was 25 µg/mL.

As to `CC(=O)Oc1cc(OC(C)=O)c2c(=O)cc(-c3ccc(OC(C)=O)c(OC(C)=O)c3)oc2c1`, the IA result with Staphylococcus aureus [2] is “inactive”.

Consider `O=c1cc(-c2ccc(O)cc2)oc2c(O)c(O)ccc12`, for which the IA entry in the assay with Staphylococcus aureus [2] is “inactive”.

On to `COc1ccc(-c2cc(=O)c3ccccc3o2)cc1` [4'-METHOXYFLAVONE], for which, in the assay on Staphylococcus aureus [1], the MIC is 6.3 µg/mL.

For the compound `CCCCCCCCCOc1ccc(-c2cc(=O)c3ccccc3o2)cc1`, the IA entry in the assay on Staphylococcus aureus [2] was “inactive”.

As to `C=CCOc1ccc(-c2cc(=O)c3ccccc3o2)cc1`, the minimal inhibitory concentration (MIC) in the assay on Staphylococcus aureus [1] stood at 6.3 µg/mL.

For `CC(=O)Oc1ccc2c(=O)cc(-c3ccc(OC(C)=O)c(OC(C)=O)c3)oc2c1`, in the assay with Staphylococcus aureus [2], the IA result is “inactive”.

As to `COc1cc([C@H]2Oc3cc(-c4cc(=O)c5c(OC(C)=O)cc(OC(C)=O)cc5o4)ccc3O[C@@H]2COC(C)=O)ccc1OC(C)=O`, the MIC in the assay on Staphylococcus aureus [1] was 0.1 µg/mL.

For `COc1cc([C@H]2Oc3cc(-c4cc(=O)c5ccc(O)cc5o4)ccc3O[C@@H]2CO)ccc1O`, the MIC in the assay on Staphylococcus aureus [1] was found to be 0.8 µg/mL.

In the case of `COc1cc([C@H]2Oc3ccc(-c4cc(=O)c5c(O)cc(O)cc5o4)cc3O[C@@H]2CO)cc(OC)c1O`, the minimal inhibitory concentration (MIC) in the assay on Staphylococcus aureus [1] turned out to be 7.8 µg/mL.

Turning to `COc1cc([C@@H]2Oc3ccc4c(=O)cc(-c5ccccc5)oc4c3O[C@H]2CO)ccc1O`, the minimum inhibitory concentration (MIC) with Staphylococcus aureus [1] amounted to 1.9 µg/mL.

Regarding `COc1cc([C@H]2Oc3cc([C@@H]4CC(=O)c5c(O)cc(O)cc5O4)cc(OC)c3O[C@@H]2CO)ccc1O`, in the assay with Staphylococcus aureus [1], the MIC stood at 1.9 µg/mL.

With `COc1cc([C@H]2Oc3cc(-c4oc5cc(O)ccc5c(=O)c4O)ccc3O[C@@H]2CO)ccc1O`, the MIC in the assay on Staphylococcus aureus [1] is 163 µg/mL.

With `COc1ccc(-c2cc(=O)c3ccccc3o2)cc1OC` [3',4'-DIMETHOXYFLAVONE], the MIC in the assay with Staphylococcus aureus [1] came to 6.3 µg/mL.

Take `CC(C)Oc1ccc(-c2cc(=O)c3ccccc3o2)cc1`: the MIC in the assay with Staphylococcus aureus [1] amounted to 1.9 µg/mL.

With `O=c1cc(-c2ccc(OCc3ccccc3)cc2)oc2ccccc12`, in the assay on Staphylococcus aureus [2], the IA result is “inactive”.

For the compound `COc1cc([C@H]2Oc3cc(-c4cc(=O)c5c(O)cc(O)cc5o4)cc(OC)c3O[C@@H]2CO)ccc1O`, in the assay on Staphylococcus aureus [1], the MIC came to 2 µg/mL.

In the case of `COc1cc([C@H]2Oc3cc(-c4cc(=O)c5c(O)cc(O)cc5o4)ccc3O[C@@H]2CO)ccc1O` [HYDNOCARPIN], in the assay with Staphylococcus aureus [1], the MIC turned out to be 0.1 µg/mL.

With `O=c1cc(-c2ccc(O)c(O)c2)oc2cc(O)ccc12`, in the assay on Staphylococcus aureus [2], the IA entry was “inactive”.

Take `COc1cc([C@H]2Oc3cc(-c4oc5cc(OC(C)=O)cc(OC(C)=O)c5c(=O)c4OC(C)=O)ccc3O[C@@H]2COC(C)=O)ccc1OC(C)=O`: the IA result in the assay on Staphylococcus aureus [3] was “inactive”.

`O=c1cc(-c2ccccc2)oc2c(O)c(O)ccc12`: the IA result in the assay on Staphylococcus aureus [2] is “inactive”.

As for `COc1ccc(-c2cc(=O)c3c(O)cc(O)cc3o2)cc1O` [DIOSMETIN], the MIC in the assay with Staphylococcus aureus [1] amounted to 15 µg/mL.

With `COc1cc([C@H]2Oc3cc([C@H]4Oc5cc(O)cc(O)c5C(=O)[C@@H]4O)ccc3O[C@@H]2CO)ccc1O` [SILYBIN A], in the assay with Staphylococcus aureus [1], the MIC worked out at 12.5 µg/mL.

Take `COc1cc([C@H]2Oc3ccc(-c4cc(=O)c5c(O)cc(O)cc5o4)cc3O[C@@H]2CO)ccc1O`: in the assay with Staphylococcus aureus [1], the MIC turned out to be 3.1 µg/mL.

Regarding `COc1cc([C@H]2Oc3cc(-c4cc(=O)c5ccc(OC(C)=O)cc5o4)ccc3O[C@@H]2COC(C)=O)ccc1OC(C)=O`, the MIC with Staphylococcus aureus [1] came out at 1.6 µg/mL.

With `CCCOc1ccc(-c2cc(=O)c3ccccc3o2)cc1`, the MIC with Staphylococcus aureus [1] amounted to 0.4 µg/mL.

With `O=c1cc(-c2ccc(O)cc2)oc2ccccc12`, the IA entry in the assay with Staphylococcus aureus [2] was “inactive”.

As to `COc1cc([C@H]2Oc3cc(-c4oc5cc(O)cc(O)c5c(=O)c4O)ccc3O[C@@H]2CO)ccc1O`, the IA result with Staphylococcus aureus [2] is “inactive”.

`COc1cc([C@@H]2Oc3ccc4c(=O)cc(-c5ccc(O)cc5)oc4c3O[C@H]2CO)ccc1O`: the MIC in the assay on Staphylococcus aureus [1] was found to be 0.6 µg/mL.

In the case of `CCOc1ccc(-c2cc(=O)c3ccccc3o2)cc1`, in the assay on Staphylococcus aureus [1], the MIC was 1.6 µg/mL.

Turning to `O=c1cc(-c2ccc3c(c2)O[C@H](c2ccc(O)cc2)[C@@H](CO)O3)oc2cc(O)cc(O)c12`, the IA entry in the assay with Staphylococcus aureus [2] is “inactive”.

`COc1cc([C@H]2Oc3cc([C@@H]4CC(=O)c5c(O)cc(O)cc5O4)ccc3O[C@@H]2CO)ccc1O`: in the assay on Staphylococcus aureus [1], the MIC is 3.1 µg/mL.

In the case of `O=c1cc(-c2ccc(O)c(O)c2)oc2cc(O)cc(O)c12`, in the assay with Staphylococcus aureus [2], the IA entry was “inactive”.

In the case of `COc1cc(OC)c2c(=O)cc(-c3ccc(OC)c(OC)c3)oc2c1`, the IA result with Staphylococcus aureus [2] was “inactive”.

In the case of `COc1cc([C@H]2Oc3cc(-c4cc(=O)c5c(O)cc(O)cc5o4)ccc3O[C@@H]2CO)cc(OC)c1O`, the MIC in the assay with Staphylococcus aureus [1] amounted to 8 µg/mL.
